The results in this text go back to the OPERA property sets (Mansouri et al. 2018).

Conditions in one series: not given
`CC(C)C1CCCCC1` yielded a boiling point of 155 °C, a log10 vapour pressure (mmHg) of 0.681 and a melting point of -89.4 °C.

With `O=C(O)c1cccc(O)c1`, the melting point came to 202 °C and the ready biodegradability entry is reported as “readily biodegradable”.

Take `COc1cc2nc(N3CCN(C(=O)c4ccco4)CC3)nc(N)c2cc1OC`: the melting point came out at 279 °C.

Consider `O=C(O)C1CCC1`, for which the boiling point was 190 °C and the melting point was -2 °C.

`CCCC(C)C(C)C` (stereo not drawn) yielded a boiling point of 116 °C, a log10 biodegradation half-life (days) of 1.42 and a log10 vapour pressure (mmHg) of 1.37.

In turn, `CCCCCCCCCCCCCCCCCC(=O)OCCC` gave a melting point of 28.9 °C.

`CCCC(C(=O)OCC)C(=O)OCC` yielded a boiling point of 221 °C.

In the case of `[C-]#[N+]c1ccccc1`, the log10 vapour pressure (mmHg) was 0.381.

As to `COc1ccc(C(=O)Cc2c(CCN(C)C)cc3c(c2OC)OCO3)c(C(=O)O)c1OC`, the melting point is 138 °C.

Turning to `C=CC(=O)OCCCCCC`, the melting point was -45 °C and the ready biodegradability entry is on record as “readily biodegradable”.

Take `C=Cc1cccnc1`: the boiling point stood at 162 °C.

The compound `CCCCCCCCC(=O)OCCCCC` gave a melting point of -27 °C.

Compound `Brc1cccc(I)c1` gave a boiling point of 252 °C and a melting point of -9.3 °C.

As to `CCOC(=O)Oc1c(OC)cc(C(=O)O[C@@H]2C[C@@H]3CN4CCc5c([nH]c6cc(OC)ccc56)[C@H]4C[C@@H]3[C@H](C(=O)OC)[C@H]2OC)cc1OC`, the melting point is 177 °C.

For the compound `C1COCOC1`, the boiling point was 106 °C and the melting point was -45 °C.

`FC(F)C(F)(F)Cl` yielded a boiling point of -10 °C and a melting point of -117 °C.

In the case of `Cc1cc(C)on1`, the boiling point was 143 °C.

Take `C[C@@H]1O[C@@H]1P(=O)(O)O`: the melting point is 94 °C.

`Cc1cc(Cl)c(Cl)c(Cl)c1` yielded a boiling point of 246 °C and a melting point of 45.5 °C.

`O=C1C(Br)=C(Br)C(=O)C(Br)=C1Br`: the melting point came out at 293 °C.

For the compound `COC(=O)[C@H]1[C@H]2C[C@@H]3c4[nH]c5ccccc5c4CCN3C[C@H]2C[C@@H](OC(=O)c2cc(OC)c(OC)c(OC)c2)[C@@H]1OC`, the melting point is 230 °C.

As to `Clc1ccc2c(Cl)cc(Cl)c(Cl)c2c1`, the log10 Koa was determined as 8.13 and the log10 vapour pressure (mmHg) was -5.07.

As to `O=C(SSC(=O)c1ccccc1)c1ccccc1`, the melting point is 134 °C.

Turning to `CCC(N)=O`, the boiling point was found to be 213 °C, the log10 vapour pressure (mmHg) was -1.42 and the melting point stood at 81.3 °C.

For `CCCCCCCC(=O)OCCCCC`, the boiling point came to 260 °C and the melting point was -34.8 °C.

`CCCCCCCCCCCC(O)CC` (stereo not drawn) registered a melting point of 31.5 °C.

With `COC1=C(OC)C(=O)C(C)=C(C)C1=O`, the melting point was found to be 62.5 °C.

`CN(C)CCCN1c2ccccc2CCc2ccc(Cl)cc21` returned a melting point of 190 °C.

Compound `BrC1CCCC1` yielded a boiling point of 138 °C.

With `CC1=CC(=O)[C@H]2C[C@@H]1C2(C)C`, the boiling point turned out to be 228 °C.

`CCN(CC)CCNc1ccc(C)c2sc3ccccc3c(=O)c12.Cl`: the melting point was 196 °C.

In the case of `O=C(CBr)OCC=CCOC(=O)CBr`, the ready biodegradability result was “readily biodegradable”.

Regarding `C=CCOCC=C`, the boiling point is 94 °C and the melting point was -6 °C.

`FC(F)=C(Cl)Cl` came in with a boiling point of 19 °C and a melting point of -116 °C.

As to `COS(=O)(=O)[O-].C[N+]1(C)CCN(CC(O)(c2ccccc2)C2CCCCC2)CC1` (stereo not drawn), the melting point was found to be 205 °C.

In the case of `NC(c1ccccc1)c1ccccc1`, the boiling point was found to be 304 °C and the melting point is 34 °C.

For `CC(C)c1ccccc1O`, the boiling point amounted to 214 °C, the log10 vapour pressure (mmHg) is -1 and the melting point is 15.5 °C.

`CC=CC(=O)OC(=O)C=CC` gave a boiling point of 247 °C.

Regarding `Cc1ccc(C(C)C)cc1`, the boiling point was found to be 177 °C, the log10 vapour pressure (mmHg) came out at 0.19, the melting point is -68.5 °C and the ready biodegradability result is listed as “readily biodegradable”.

With `CC(=O)c1cccnc1`, the boiling point came to 220 °C, the log10 Henry constant (atm·m³/mol) was -7.67 and the melting point came to 13.5 °C.

`Cc1ccc(C=O)c(O)c1` displayed a boiling point of 223 °C and a melting point of 60.5 °C.

In turn, `CC(C)NC(C)(C)C` gave a boiling point of 98 °C.

`CCCCOC` returned a boiling point of 70.1 °C, a log10 vapour pressure (mmHg) of 2.14 and a melting point of -116 °C.

With `CCc1oc2ccccc2c1C(=O)c1cc(Br)c(O)c(Br)c1`, the melting point was determined as 151 °C.

`Cc1ccc(S(=O)(=O)NC(=O)NN2CCCCCC2)cc1` yielded a melting point of 172 °C.

Take `C#C[C@H](O)CC`: the boiling point worked out at 125 °C.

Turning to `NC(=O)c1ccccc1O`, the melting point came out at 142 °C.

As to `CCCCCCCC(=O)CCCCCCC`, the boiling point turned out to be 291 °C, the log10 vapour pressure (mmHg) is -3.39 and the melting point was 43 °C.

Regarding `Clc1cccc(Nc2ccccc2)c1`, the boiling point is 338 °C.

The same series, now with this note: fish.
For the compound `COC(=O)C(C)Oc1ccc(Oc2ncc(C(F)(F)F)cc2Cl)cc1` (stereo not drawn), the log10 BCF came to 1.23 and the log10 biotransformation half-life (days) was -1.08.

For `Clc1ccc(Oc2c(Cl)cc(Cl)c(Cl)c2Cl)c(Cl)c1`, the log10 biotransformation half-life (days) came out at 2.76.

Consider `Clc1ccc(Cl)c(Cl)c1Cl`, for which the log10 BCF turned out to be 3.38 and the log10 biotransformation half-life (days) is 0.69.

Compound `Clc1cc2c(cc1Cl)Oc1cc(Cl)c(Cl)cc1O2` had a log10 BCF of 4.99 and a log10 biotransformation half-life (days) of 1.78.

Compound `O=[N+]([O-])c1ccc(Cl)c(Cl)c1Cl` displayed a log10 BCF of 2.2 and a log10 biotransformation half-life (days) of -0.19.
